Paper PMC10089289, “Well-Defined Heparin Mimetics Can Inhibit Binding of the Trimeric Spike of SARS-CoV-2 in a Length-Dependent Manner” (JACS Au, 2023)

Molecular target: SARS-CoV-2 Delta RBD binding to Vero E6 cells (Severe acute respiratory syndrome coronavirus 2, UniProt P0DTC2, L452R/T478K)
Type: cell-based

NCCCCCOC1OC(COS(=O)(=O)O)C(OC2OC(C(=O)O)C(OC3OC(COS(=O)(=O)O)C(OC4OC(C(=O)O)C(OC5OC(COS(=O)(=O)O)C(OC6OC(C(=O)O)C(O)C(O)C6O)C(O)C5NS(=O)(=O)O)C(O)C4OS(=O)(=O)O)C(O)C3NS(=O)(=O)O)C(O)C2OS(=O)(=O)O)C(O)C1NS(=O)(=O)O (stereo not shown) [Compound 1, GlcA-GlcNS6S-IdoA2S-GlcNS6S-IdoA2S-GlcNS6S]
Inhibition of delta RBD binding to Vero E6 cells: does not display inhibition
